Reference: patent EP0239528A1, “13-Beta-carbamoyloxy-milbemicyne derivatives for fighting harmful animal and plant parasites” (CIBA-GEIGY AG, priority 1986, dated 1987)
Read-outs that look alike come from different tables or passages of the source.

Key:
[1] = test system: L₁-Larven von Lucilia sericata; experiment: B-3 action against L1 larvae in larval culture medium; type: in vivo; conditions: 96 h, reduced concentration of 100 ppm, after 4 days, read-out: Wirkung (Mortalitätsrate)
Description: B-3. Wirkung gegen L₁-Larven von Lucilia sericata
1 ml einer wässrigen Suspension der zu prüfenden Aktivsubstanz werden so mit 3 ml eines speziellen Larvenzuchtmediums bei ca. 50°C vermischt, dass ein Homogenisat von wahlweise 250 ppm oder […] Wirkstoffgehalt entsteht. In jede Reagenzglas-Probe werden ca. 30 Lucilia-Larven (L₁) eingesetzt. Nach 4 Tagen wird die Mortalitätsrate bestimmt. Die Verbindungen aus den Herstellungsbeispielen zeigen bei 250 ppm eine Wirkung von 100 %, wobei die Verbindungen aus den Herstellungsbeispiele, wie z.B. E8, E6, E2, E14, E22, E28, E26, E30, E32, E34, E36 und E38, diese Wirkung auch noch bei der reduzierten Wirkstoffkonzentration von 100 ppm erzielten.

Meloidogyne incognita = experiment: B-8 soil nematicidal action on tomato plants, root-knot index; type: in vivo; conditions: 0,002 % active substance relative to soil volume, after 4 weeks; result in words
Description: B-8. Bodennematizide Wirkung gegen Meloidogyne incognita
Eier von Meloidogyne incognita werden in Sand eingemischt. Dieses Gemisch wird dann in 200 ml fassende Tontöpfe eingebracht (5000 Eier pro Topf). Am gleichen Tag wird pro Topf eine 3 Wochen alte Tomatenpflanze gepflanzt und der formulierte Wirkstoffe mittels Druckapplikation in die Töpfe hineingegeben (0,002 % Aktivsubstanz bezogen auf das Bodenvolumen). Die eingetopften Pflanzen werden nun bei einer Temperatur von 26±1°C und einer relativen Luftfeuchtigkeit von 60 % in einem Gewächshaus aufgestellt. Nach Ablauf von 4 Wochen erfolgt eine Evaluierung durch Untersuchung der Pflanzen auf Wurzelgallbildung nach dem sogenannten Wurzelgall-Index ("Knot Index").

Aedes aegypti = experiment: B-7 larvicidal action in water; type: in vivo; conditions: 3,3 ppm, after one day
Description: B-7. Larvizidwirkung gegen Aedes aegypti
Auf die Oberfläche von 150 ml Wasser, das sich in einem Behälter befindet, wird soviel einer 0,1 %igen acetonischen Lösung des Wirkstoffes pipettiert, dass Konzentrationen von wahlweise 10 ppm, 3,3 ppm und 1,6 ppm erhalten werden. Nach Verdunsten des Acetons wird der Behälter mit ca. 30-40 3 Tage alten Aedes-Larven beschickt. Nach 1, 2 und 5 Tagen wird die Mortalität geprüft.

[2] = test system: Haemonchus concortus und Trichostrongylus colubriformis; experiment: B-5 test on nematode-infected sheep, worm egg count in faeces; type: in vivo, Schafen; conditions: single dose 0,5 mg/kg by stomach tube or intraruminal injection
Description: B-5. Versuch an mit Nematoden (Haemonchus concortus und Trichostrongylus colubriformis) infizierten Schafen
Der Wirkstoff wird als Suspension formuliert mit einer Magensonde oder durch Injektion in den Pansen eines Schafes gegeben, das mit Haemonchus concortus und Trychostrongylus colubriformis künstlich infiziert worden ist. Pro Dosis werden 1 bis 3 Tiere verwendet. Jedes Schaf wird nur einmal mit einer einzigen Dosis behandelt, und zwar wahlweise mit 1 mg oder 0,5 mg/kg Körpergewicht. Die Evaluierung erfolgt durch Vergleich der Anzahl der vor und nach Behandlung im Kot der Schafe ausgeschiedenen Wurmeier.
Gleichzeitig und gleichartig infizierte aber unbehandelte Schafe dienen als Kontrolle. […] Verbindungen aus den Herstellungsbeispielen, wie. z.B. E4, E8, E14, E18, E30 bis E32, E 34 und E36, bewirkten dies auch noch bei 0,5 mg/kg.

Spodoptera littoralis = experiment: B-1 insecticidal stomach-poison action on sprayed cotton plants; type: in vivo; conditions: 12,5 ppm active ingredient, after 24 hours, L1 larvae on cotton plants
Description: B-1. Insektizide Frassgift-Wirkung bei Spodoptera littoralis
Eingetopfe Baumwollpflanzen im 5-Blatt-Stadium werden mit einer acetonisch/wässrigen Versuchslösung besprüht, die 3, 12,5 oder 50 ppm der zu prüfenden Verbindung enthält.
Nach dem Antrocknen des Belags werden die Pflanzen mit ca. 30 Larven (L₁-Stadium) von Spodoptera littoralis besetzt. Pro Versuchsverbindung und pro Test-Spezies verwendet man zwei Pflanzen. Der Versuch wird bei ca. 24°C und 60 % relativer Luftfeuchtigkeit durchgeführt Auswertungen und Zwischenauswertungen auf moribunde Tiere, Wachstum und Larven und Frasschäden erfolgen nach 24 Stunden, 48 Stunden und 72 Stunden.

Dermanyssus gallinae = experiment: B-4 miticidal action, wetting test in glass container; type: in vivo; conditions: 72 h, observed for three days, read-out: Wirkung (Mortalität)
Description: B-4. Milbizide Wirkung gegen Dermanyssus gallinae
2 bis 3 ml einer Testlösung (100, 10, 1 und 0,1 ppm Aktivsubstanz) werden in einem nach oben offenen Glasbehälter gegeben und ca. 200 Milben in unterschiedlichen Entwicklungstadien in diesen Behälter eingesetzt. Der Glasbehälter wird mit einem Wattebausch verschlossen und 10 Minuten gleichmässig, bis zur vollständigen Benetzung der Milben geschüttelt. Danach wird der Behälter umgekehrt hingestellt, bis die überschüssige Testlösung von der Watte aufgesogen ist. Der Behälter wird erneut gekehrt und die behandelten Zecken zur Evaluierung der Wirksamkeit der Testsubstanzen drei Tage unter Laborbedingungen beobachtet, wobei die Mortalität als Massstab für Wirksamkeit herangezogen wird.

Aphis craccivora = experiment: B-6 contact action on infested pea seedlings; type: in vivo; conditions: for mortality at 25 ppm: Aphis craccivora, 72 h, read-out: Abtötung
Excerpt: B-6. Kontaktwirkung auf Aphis craccivora
Erbsenkeimlinge, die mit sämtlichen Entwicklungsstadien der Laus infiziert sind, werden mit einer aus einem Emulsionskonzentrat hergestellten Wirkstofflösung besprüht, die wahlweise 50 ppm, 25 ppm oder 12,5 ppm Wirkstoff enthält. Nach 3 Tagen wird auf mehr als 80 % tote bzw. abgefallene Blattläuse ausgewertet. Nur bei dieser Wirkungshöhe wird ein Präparat als wirksam eingestuft.

[3] = test system: OP-sensible Tetranychus urticae; experiment: B-2 action against plant-damaging acarids on bean plants; type: in vivo; conditions: 1,6 ppm active ingredient, evaluation after seven days
Excerpt: B-2. Wirkung gegen pflanzenschädigende Akariden OP-sensible Tetranychus urticae
Die Primärblätter von Bohnenpflanzen (Phaseolus vulgaris) werden 16 Stunden vor dem Versuch mit einem durch T. urticae infestierten, aus einer Massenzucht stammenden Blattstück belegt. Die so mit allen Milben-Stadien infestierten Pflanzen werden nach Entfernung des Blattstücks mit einer Versuchslösung bis zur Tropfnässe besprüht, die wahlweise 0,4 ppm oder 1,6 ppm der zu prüfenden Verbindung enthält. Die Temperatur in der Gewächshauskabine beträgt ca. 25°C.
Nach sieben Tagen wird unter dem Binokular auf Prozentsatz mobiler Stadien (Adulte und Nymphen) und auf vorhandene Eier ausgewertet.

SMILES | mortality at 100 ppm [1] | Nematodenbefall (Reduktion der Wurmeier im Kot) [2] | Abtötung (Spodoptera littoralis) | further results
CCC1OC2(CCC1C)CC1CC(CC=C(C)C(OC(=O)NC)C(C)C=CC=C3COC4C(O)C(C)=CC(C(=O)O1)C34O)O2 (stereo not drawn) [Beispiel E2, 13β-N-Methyl-carbamoyloxy-milbemycin A₄] | 100% |  |  | Wirksamkeit gegen Meloidogyne incognita (Reduktion der Wurzelgallbildung) (Meloidogyne incognita): besonders aktiv
CC[C@H]1O[C@]2(CC[C@@H]1C)C[C@@H]1C[C@@H](C/C=C(\C)[C@H](OC(=O)NC(C)(C)C)[C@@H](C)/C=C/C=C3\CO[C@@H]4[C@H](O)C(C)=C[C@@H](C(=O)O1)[C@]34O)O2 [Beispiel E4, 13β-N-tert.-Butyl-carbamoyloxy-milbemycin A₄] |  | komplette Reduktion der Wurmeier im Kot | vollständige Abtötung | Abtötung sämtlicher Larven (Aedes aegypti): vollständige Abtötung
CCC1OC2(CCC1C)CC1CC(CC=C(C)C(OC(=O)Nc3ccccc3)C(C)C=CC=C3COC4C(O)C(C)=CC(C(=O)O1)C34O)O2 (stereo not drawn) [Beispiel E6, 13β-N-Phenyl-carbamoyloxy-milbemycin A₄] | 100% |  | vollständige Abtötung | 
CCC1OC2(CCC1C)CC1CC(CC=C(C)C(OC(=O)N(C(C)C)C(C)C)C(C)C=CC=C3COC4C(O)C(C)=CC(C(=O)O1)C34O)O2 (stereo not drawn) [Beispiel E8, 13β-N,N-Diisopropyl-carbamoyloxy-milbemycin A₄] | 100% | komplette Reduktion der Wurmeier im Kot |  | Abtötung sämtlicher Larven (Aedes aegypti): vollständige Abtötung; mortality at 10 ppm (Dermanyssus gallinae): 100%; mortality at 25 ppm (Aphis craccivora; 25 ppm, after 3 days): 100%
CNC(=O)OC1C(C)=CCC2CC(CC3(CCC(C)C(C(C)C)O3)O2)OC(=O)C2C=C(C)C(O)C3OCC(=CC=CC1C)C23O (stereo not drawn) [Beispiel E10, 13β-N-Methylcarbamoyloxy-milbemycin D] |  |  | vollständige Abtötung | mortality at 10 ppm (Dermanyssus gallinae): 100%; mortality at 25 ppm (Aphis craccivora): 100%; Wirksamkeit gegen Meloidogyne incognita (Reduktion der Wurzelgallbildung) (Meloidogyne incognita): besonders aktiv
CCC1OC2(CCC1C)CC1CC(CC=C(C)C(OC(=O)NC3CCCCC3)C(C)C=CC=C3COC4C(O)C(C)=CC(C(=O)O1)C34O)O2 (stereo not drawn) [Beispiel E12, 13β-N-Cyclohexylcarbamoyloxy-milbemycin A₄] |  |  | vollständige Abtötung | Abtötung (Aphis craccivora; 25 ppm, after 3 days): 100%
CCC1OC2(CCC1C)CC1CC(CC=C(C)C(OC(=O)Nc3ccc(Br)cc3)C(C)C=CC=C3COC4C(O)C(C)=CC(C(=O)O1)C34O)O2 (stereo not drawn) [Beispiel E14, 13β-N-(4-Bromphenyl)carbamoyloxy-milbemycin A₄] | 100% | komplette Reduktion der Wurmeier im Kot | vollständige Abtötung | Abtötung sämtlicher Larven (Aedes aegypti): vollständige Abtötung; mortality at 25 ppm (Aphis craccivora; 25 ppm, after 3 days): 100%
CC[C@H]1O[C@]2(CC[C@@H]1C)C[C@@H]1C[C@@H](C/C=C(\C)[C@H](OC(=O)N(C)C)[C@@H](C)/C=C/C=C3\CO[C@@H]4[C@H](O)C(C)=C[C@@H](C(=O)O1)[C@]34O)O2 [Beispiel E16, 13β-N,N-Dimethyl-carbamoyloyx-milbemycin A₄] |  |  | vollständige Abtötung | Wirksamkeit gegen Meloidogyne incognita (Reduktion der Wurzelgallbildung) (Meloidogyne incognita): besonders aktiv
CCNC(=O)O[C@H]1/C(C)=C/C[C@@H]2C[C@@H](C[C@]3(CC[C@H](C)[C@@H](CC)O3)O2)OC(=O)[C@@H]2C=C(C)[C@@H](O)[C@H]3OC/C(=C\C=C\[C@@H]1C)[C@]32O [Beispiel E18, 13β-N-Ethyl-carbamoyloxy-milbemycin A₄] |  | komplette Reduktion der Wurmeier im Kot |  | Wirksamkeit gegen Meloidogyne incognita (Reduktion der Wurzelgallbildung) (Meloidogyne incognita): besonders aktiv
CC[C@H]1O[C@]2(CC[C@@H]1C)C[C@@H]1C[C@@H](C/C=C(\C)[C@H](OC(=O)Nc3ccc([N+](=O)[O-])cc3)[C@@H](C)/C=C/C=C3\CO[C@@H]4[C@H](O)C(C)=C[C@@H](C(=O)O1)[C@]34O)O2 [Beispiel E20, 13β-N-(4-Nitrophenyl)-carbamoyloxy-milbemycin A₄] |  |  |  | Abtötung sämtlicher Larven (Aedes aegypti): vollständige Abtötung; Abtötung [3]: vollständige Abtötung
CCC1OC2(CCC1C)CC1CC(CC=C(C)C(OC(=O)Nc3ccccc3C(F)(F)F)C(C)C=CC=C3COC4C(O)C(C)=CC(C(=O)O1)C34O)O2 (stereo not drawn) [Beispiel E22, 13β-N-(2-Trifluorphenyl)-carbamoyloxy-milbemycin A₄] | 100% |  | vollständige Abtötung | Abtötung sämtlicher Larven (Aedes aegypti): vollständige Abtötung; Abtötung [3]: vollständige Abtötung; mortality at 25 ppm (Aphis craccivora; 25 ppm, after 3 days): 100%
CCC1OC2(CCC1C)CC1CC(CC=C(C)C(OC(=O)NC(C)C)C(C)C=CC=C3COC4C(O)C(C)=CC(C(=O)O1)C34O)O2 (stereo not drawn) [Beispiel E26, 13β-Isopropyl-carbamoyloxy-milbemycin A₄] | 100% |  |  | mortality at 10 ppm (Dermanyssus gallinae): 100%
CCC1OC2(CCC1C)CC1CC(CC=C(C)C(OC(=O)NCc3ccccc3)C(C)C=CC=C3COC4C(O)C(C)=CC(C(=O)O1)C34O)O2 (stereo not drawn) [Beispiel E28, 13β-N-Benzyl-carbamoyloxy-milbemycin A₄] | 100% |  |  | 
CCC1OC2(CCC1C)CC1CC(CC=C(C)C(OC(=O)NC(C)c3ccccc3)C(C)C=CC=C3COC4C(O)C(C)=CC(C(=O)O1)C34O)O2 [Beispiel E30, 13β-N-((S)-1-Phenylethyl)-carbamoyloxy-milbemycin A₄] | 100% |  |  | 
CCC1OC2(CCC1C)CC1CC(CC=C(C)C(OC(=O)Nc3ccccc3Br)C(C)C=CC=C3COC4C(O)C(C)=CC(C(=O)O1)C34O)O2 (stereo not drawn) [Beispiel E34, 13β-N-(2-Bromphenyl)-carbamoyloxy-milbemycin A₄] | 100% | komplette Reduktion der Wurmeier im Kot |  | 
CCc1ccccc1NC(=O)OC1C(C)=CCC2CC(CC3(CCC(C)C(CC)O3)O2)OC(=O)C2C=C(C)C(O)C3OCC(=CC=CC1C)C23O (stereo not drawn) [Beispiel E36, 13β-N-(2-Ethylphenyl)-carbamoyloxy-milbemycin A₄] | 100% | komplette Reduktion der Wurmeier im Kot |  | 
CCC1OC2(CCC1C)CC1CC(CC=C(C)C(OC(=O)Nc3ccccc3[N+](=O)[O-])C(C)C=CC=C3COC4C(O)C(C)=CC(C(=O)O1)C34O)O2 (stereo not shown) [Beispiel E38] | 100% |  |  | 
